In patent US5112806A, “Antibiotic, mersacidin, a process for the preparation thereof and the use thereof as a pharmaceutical” (Hoechst Aktiengesellschaft, priority 1988, dated 1992):
Where two headings read alike, the source gives them in different places.

Experiments:
S. haemolyticus 809 = assay: MIC, growth inhibition in vitro; format: cell-based; details: Table 5
[1] = system: Streptococcus hominis ML 22; assay: MIC, growth inhibition in vitro; format: cell-based; details: Table 5
S. aureus 3066 = assay: MIC, growth inhibition in vitro; format: cell-based
Text: (§1) The biological properties of mersacidin as the MIC values required for inhibition of the growth of various microorganisms are listed in Table 3.

S. aureus 710 = assay: MIC, growth inhibition in vitro; format: cell-based
Text: as §1

[2] = system: Staphylococcus aureus 209P; assay: MIC, growth inhibition in vitro; format: cell-based
Text: as §1

S. aureus R 85 = assay: MIC, growth inhibition in vitro; format: cell-based
Text: as §1

S. aureus C 31153 = assay: In vivo activity against S. aureus C 31153 infection in mice; details: S. aureus C 31153 (Methicillin & Caphalexin resistant), 2 × 10^9 CFU/mouse
Text: (§2) In vivo activity of potassium mersacidin against S. aureus
(§3) and Streptococcus pyogenes A 77 infection in mice

S. aureus SG 511 [3] = assay: In vivo activity against S. aureus SG 511 infection in mice
Protocol: On subcutaneous administration in a dose of 9.37 and 25.00 mg/kg to laboratory mice infected experimentally with Staphylococcus aureus SG 511 and S. aureus 710 (resistant to methicillin), […].
In vivo activity of mersacidin against S. aureus SG 511
infection in mice compared with vancomycin.
Inoculation medium used: 1.75 × 10^9 CFU/mouse

S. epidermidis 32965 = assay: MIC, growth inhibition in vitro; format: cell-based; details: Table 5
S. haemolyticus 712 = assay: MIC, growth inhibition in vitro; format: cell-based; details: Table 5
S. aureus 25923 = assay: MIC, growth inhibition in vitro; format: cell-based; details: Table 5
[4] = system: Streptococcus pyogenes A 77; assay: In vivo activity against Streptococcus pyogenes A 77 infection in mice; details: Streptococcus pyogenes A 77, 3,8 × 10^3 CFU/mouse
Text: as §2, §3

[5] = system: Streptococcus faecalis 29212; assay: MIC, growth inhibition in vitro; format: cell-based; details: Table 5
physchem = details: water
Protocol: These salts can be prepared by the treatment of mersacidin with 1.0 equivalent of the corresponding alkali metal hydroxide in the presence of pyridine. For example, mersacidin (50 mg) was dissolved in 1 ml of pyridine, the solution cooled to 0° C. and a solution of 1.683 mg of KOH in 3 ml of distilled water was added under stirring.

[6] = system: Streptococcus faecalis 21777; assay: MIC, growth inhibition in vitro; format: cell-based; details: Table 5
S. epidermidis 823 = assay: MIC, growth inhibition in vitro; format: cell-based; details: Table 5
S. aureus E 710 (MRSA) = assay: In vivo activity against S. aureus E 710 (MRSA) in mice
Protocol: On subcutaneous administration in a dose of 9.37 and 25.00 mg/kg to laboratory mice infected experimentally with Staphylococcus aureus SG 511 and S. aureus 710 (resistant to methicillin), […]. […]

[7] = Animal mortality after subcutaneous dose; format: in vivo; details: laboratory mice; 500 mg/kg subcutaneous, highest concentration tested
S. aureus SG 511 [8] = assay: In vivo activity against S. aureus SG 511 infection in mice; remark: listed apart in the source
Micrococcus luteus = assay: MIC, growth inhibition in vitro; format: cell-based
Text: as §1

S. aureus E 712 = assay: MIC, growth inhibition in vitro; format: cell-based
Text: as §1

S. aureus 503 = assay: MIC, growth inhibition in vitro; format: cell-based
Text: as §1

Str. D 21777 = assay: MIC, growth inhibition in vitro; format: cell-based
Text: as §1

[9] = system: Peptostreptococci species; assay: MIC, growth inhibition in vitro; format: cell-based
Text: as §1

S. aureus 20240 = assay: MIC, growth inhibition in vitro; format: cell-based
Text: as §1

Streptococcus bovis = assay: MIC, growth inhibition in vitro; format: cell-based
Text: as §1

[10] = system: Staphylococcus aureus SG 511; assay: MIC, growth inhibition in vitro; format: cell-based
Text: as §1

S. aureus 20424 = assay: MIC, growth inhibition in vitro; format: cell-based
Text: as §1

Group A Streptococci = assay: MIC, growth inhibition in vitro; format: cell-based
Text: as §1

S. aureus 20666 = assay: MIC, growth inhibition in vitro; format: cell-based
Text: as §1

S. epidermidis MSSE = assay: MIC, growth inhibition in vitro; format: cell-based
Text: as §1

Streptococcus pneumoniae = assay: MIC, growth inhibition in vitro; format: cell-based
Text: as §1

Group B Streptococci = assay: MIC, growth inhibition in vitro; format: cell-based
Text: as §1

S. aureus 285 = assay: MIC, growth inhibition in vitro; format: cell-based
Text: as §1

Streptococcus viridans = assay: MIC, growth inhibition in vitro; format: cell-based
Text: as §1

Group C Streptococci = assay: MIC, growth inhibition in vitro; format: cell-based
Text: as §1

Group G Streptococci = assay: MIC, growth inhibition in vitro; format: cell-based
Text: as §1

Bacillus subtilis = assay: MIC, growth inhibition in vitro; format: cell-based
Text: as §1

S. aureus 722 = assay: MIC, growth inhibition in vitro; format: cell-based
Text: as §1

Propionibacterium genes = assay: MIC, growth inhibition in vitro; format: cell-based
Text: as §1

Listeria monocyctogenes = assay: MIC, growth inhibition in vitro; format: cell-based
Text: as §1

Streptococcus faecalis [11] = assay: MIC, growth inhibition in vitro; format: cell-based; details: Streptococcus faecalis (Table 3 no. 17)
Text: as §1

S. epidermidis MRSE = assay: MIC, growth inhibition in vitro; format: cell-based
Text: as §1

Cornybacterium JK = assay: MIC, growth inhibition in vitro; format: cell-based
Text: as §1

S. aureus 789 = assay: MIC, growth inhibition in vitro; format: cell-based
Text: as §1

S. aureus E 88 = assay: MIC, growth inhibition in vitro; format: cell-based
Text: as §1

S. aureus SG 511 [12] = assay: In vivo activity against S. aureus SG 511 abscess in rats; details: infecting dose 2 × 10^-9 CFU in 5% mucin under the skin, 50 mg/kg × 7 days
Protocol: In vivo activity of mersacidin against S. aureus SG 511 abscess in rats, compared with vancomycin.
Infecting dose : […] in 5% mucin, injected under the skin.
Treatment: 50 mg/kg × 7 days

Streptococcus faecalis [13] = assay: MIC, growth inhibition in vitro (second entry, no. 27); format: cell-based; details: Streptococcus faecalis (Table 3 no. 27)
Text: as §1

[14] = mice, S. aureus SG 511, 1.75 × 10^9 CFU/mouse, 0.80 mg/kg × 3, s.c.
[15] = mice, S. aureus SG 511, 1.75 × 10^9 CFU/mouse, 1.60 mg/kg × 3, s.c.
[16] = mice, S. aureus SG 511, 1.75 × 10^9 CFU/mouse, 3.12 mg/kg × 3, s.c.
[17] = mice, S. aureus SG 511, 1.75 × 10^9 CFU/mouse, 6.25 mg/kg × 3, s.c.
[18] = S. aureus SG 511, 1.75 × 10^9 CFU/mouse, 9.37 mg/kg × 3, s.c.
[19] = S. aureus E 710 (MRSA), 5 × 10^9 CFU/mouse (1 MLD), 6.25 mg/kg × 3, s.c.
[20] = S. aureus E 710 (MRSA), 5 × 10^9 CFU/mouse (1 MLD), 9.37 mg/kg × 3, s.c.
[21] = S. aureus E 710 (MRSA), 5 × 10^9 CFU/mouse (1 MLD), 12.50 mg/kg × 3, s.c.
[22] = S. aureus E 710 (MRSA), 5 × 10^9 CFU/mouse (1 MLD), 25.00 mg/kg × 3, s.c.
[23] = S. aureus E 710 (MRSA), 5 × 10^9 CFU/mouse (1 MLD), s.c.

C=C1NC(=O)[C@@H]2NC(=O)[C@H](CC(C)C)NC(=O)[C@H](NC(=O)[C@@H]3CS[C@@H](C)[C@@H](NC(=O)[C@H](Cc4ccccc4)NC(=O)[C@@H]4NC(=O)[C@@H](N)CS[C@H]4C)C(=O)N[C@@H](CC(C)C)C(=O)N4CCC[C@H]4C(=O)NCC(=O)NCC(=O)NCC(=O)NCC(=O)N[C@@H](C(C)C)C(=O)N3)[C@H](C)SC[C@H](NC(=O)[C@H](CCC(=O)O)NC1=O)C(=O)N[C@@H]([C@@H](C)CC)C(=O)N/C=C\S[C@H]2C [potassium mersacidin]
MIC values (S. haemolyticus 809): 4 µg/mL | MIC values [1]: 10 µg/mL | MIC values (S. aureus 3066; Table 5): 10 µg/mL | MIC values (S. aureus 710; Table 5): 1 µg/mL | MIC values ([2]; Table 5): 2 µg/mL | MIC values (S. aureus R 85; Table 5): 2 µg/mL | 50% Effective Dose (ED50) (S. aureus C 31153): 15,35 mg/kg × 3, s.c. | 50% Effective Dose (ED50) (S. aureus SG 511 [3]; S. aureus SG 511 (Methicillin sensitive), 1,75 × 10^9 CFU/mouse): 2,85 mg/kg × 3, s.c. | MIC values (S. epidermidis 32965): 6 µg/mL | MIC values (S. haemolyticus 712): 10 µg/mL | MIC values (S. aureus 25923): 8 µg/mL | 50% Effective Dose (ED50) [4]: 0,46 mg/kg × 3, s.c. | MIC values [5]: 15 µg/mL | solubility (physchem): ≥ 160 mg/mL | MIC values [6]: 15 µg/mL | MIC values (S. epidermidis 823): 50 µg/mL | 50% Effective Dose (ED50) (S. aureus E 710 (MRSA); S. aureus E 710 (Methicillin resistant), 1 × 10^10 CFU/mouse): 6,72 mg/kg × 3, s.c.

mersacidin
animal mortality [7]: no animal mortality was observed | activity in the in vivo system of laboratory mice (S. aureus SG 511 [8]; mice infected with S. aureus SG 511 and S. aureus 710 (resistant to methicillin), 9.37 and 25.00 mg/kg s.c.): good activity | Number of mice treated/cured (S. aureus SG 511 [8]; [14]): 0/27 | percentage rate of cure (S. aureus SG 511 [8]; [14]): 0% | Number of mice treated/cured (S. aureus SG 511 [8]; [15]): 3/24 | percentage rate of cure (S. aureus SG 511 [8]; [15]): 12% | Number of mice treated/cured (S. aureus SG 511 [8]; [16]): 18/27 | percentage rate of cure (S. aureus SG 511 [8]; [16]): 67% | Number of mice treated/cured (S. aureus SG 511 [8]; [17]): 38/40 | percentage rate of cure (S. aureus SG 511 [8]; [17]): 95% | Approx. ED90 (S. aureus SG 511 [8]; mice, S. aureus SG 511, 1.75 × 10^9 CFU/mouse, s.c.): ~5.38 mg/kg × 3 | MIC values (Micrococcus luteus): 0,0975-0,195 μg/ml | MIC values (S. aureus E 712): 3,12-6,25 μg/ml | MIC values (S. aureus 3066): 12.50 to 25.00 µg/mL | MIC values (S. aureus 503): 0.78 to 1.56 µg/mL | MIC values (Str. D 21777): 1,56-3,12 μg/ml | MIC values [9]: 0,5-8,0 μg/ml | MIC values (S. aureus 20240): 3.12 to 6.25 µg/mL | MIC values (Streptococcus bovis): 4,0-32,0 μg/ml | MIC values [10]: 0,39-0,78 μg/ml | MIC values (S. aureus 20424): 1.56 to 3.12 µg/mL | MIC values (S. aureus 710): 0,39-0,78 μg/ml | MIC values (Group A Streptococci): 0,5-8,0 μg/ml | MIC values (S. aureus 20666): 3,12-6,25 μg/ml | MIC values (S. epidermidis MSSE): 0,5-16,0 μg/ml | MIC values (Streptococcus pneumoniae): 1,0-4,0 μg/ml | MIC values (Group B Streptococci): 1,0-8,0 μg/ml | MIC values (S. aureus 285): 0,78-1,56 μg/ml | MIC values (Streptococcus viridans): 0,5-32,0 μg/ml | MIC values (Group C Streptococci): 2,0-64 μg/ml | MIC values (Group G Streptococci): 2,0-8,0 μg/ml | MIC values (Bacillus subtilis): 0,39-0,78 μg/ml | MIC values (S. aureus 722): 3.12 to 6.25 µg/mL | MIC values (Propionibacterium genes): 1,0-16,0 μg/ml | MIC values [2]: 0.78 to 1.56 µg/mL | MIC values (Listeria monocyctogenes): 16,0-64,0 μg/ml | MIC values (Streptococcus faecalis [11]): 0,0975-0,195 μg/ml | MIC values (S. epidermidis MRSE): 0,5-16,0 μg/ml | MIC values (Cornybacterium JK): 2,0-4,0 μg/ml | MIC values (S. aureus R 85): 0,39-0,78 μg/ml | MIC values (S. aureus 789): 0.78 to 1.56 µg/mL | MIC values (S. aureus E 88): 6.25 to 12.50 µg/mL | Number of mice treated/cured (S. aureus SG 511 [3]; [18]): 53/53 | percentage rate of cure (S. aureus SG 511 [3]; [18]): 100% | Approx. ED50 (S. aureus SG 511 [3]; S. aureus SG 511, 1.75 × 10^9 CFU/mouse, s.c.): ~2.59 mg/kg × 3 | reduces bacterial counts by (S. aureus SG 511 [12]): 1.4 log10 CFU/ml | MIC values (Streptococcus faecalis [13]): 64,0 μg/ml | Number of mice treated/cured (S. aureus E 710 (MRSA); [19]): 1/10 | percentage rate of cure (S. aureus E 710 (MRSA); [19]): 10% | Number of mice treated/cured (S. aureus E 710 (MRSA); [20]): 4/10 | percentage rate of cure (S. aureus E 710 (MRSA); [20]): 40% | Number of mice treated/cured (S. aureus E 710 (MRSA); [21]): 10/16 | percentage rate of cure (S. aureus E 710 (MRSA); [21]): 63% | Number of mice treated/cured (S. aureus E 710 (MRSA); [22]): 12/12 | percentage rate of cure (S. aureus E 710 (MRSA); [22]): 100% | Approx. ED50 (S. aureus E 710 (MRSA); [23]): ~10.81 mg/kg × 3 | Approx. ED90 (S. aureus E 710 (MRSA); [23]): ~19.59 mg/kg × 3
